Data reported in patent US20040033901A1, “Uses for cellulose-containing aggregates” (priority 1994, published 2004).

System: termites
Assay: field test of termite attack on a weighted board on a one inch bed of aggregates
Format: in vivo
Conditions: one inch thick bed on ground surface in termite-infested area, after one year
From the text: In a field test, a one inch thick bed of aggregates containing either 0.1% Deltamethrin, 0.001% Deltamethrin, or no Deltamethrin were positioned on ground surface in an area known to be infested with termites and a weighted board was positioned on the top of the bed. […] Thus, at least for Deltamethrin, a toxin level of 0.001 wt % appears both effective and long lived.

SMILES: CC1(C)[C@H](C(=O)O[C@H](C#N)c2cccc(Oc3ccccc3)c2)[C@@H]1C=C(Br)Br [Deltamethrin]
- protection of board from termite attack (aggregates containing 0.001% Deltamethrin): totally protected
- protection of board from termite attack (aggregates containing 0.1% Deltamethrin): totally protected
